Results from patent US9943524B2, “Use of alkaloid in preparing pharmaceutical compositions for preventing or treating pulmonary fibrosis” (China Pharmaceutical University, priority 2014, dated 2018).

Tests used:
[1] = test system: TGF-β1; experiment: ELISA content determination of TGF-β1 in mice lung tissue (Embodiment 4); assay type: in vivo, C57BL/6 mice; conditions: for content of TGF-β1 in lung tissue (ELISA): 30 mg/kg and 60 mg/kg, prevention groups and treatment groups, versus model group (FIG. 8), lower dose more effective; for effect on content of TGF-β1, comparison among compounds: ELISA, lung tissue
Procedure: (§1) Female C57BL/6 mice (eight-week-old) are established for models after 7 days, the time is set for the mice to adapt to the environment. After fasts for overnight, the mice are anaesthetized by 3% chloral hydrate and fixed. Sterilize and incise neck skin longitudinally as little injury as possible. Split fascia and muscle with tweezers longitudinally and expose the windpipe. Then, about 35 μl (3.5 mg/kg) bleomycin are injected into windpipe with microinjector. Put the mice upright rapidly and rotate the mice for 3˜5 minutes, so that bleomycin is able to enter into the pulmones uniformly. Observe the breathing of mice. Sterilize neck injury with 75% alcohol tampon and stitch the wound, then 1 drop or 2 drops of benzylpenicillin injection is/are dripped into the suture. Put the mice back into dry and clean cages, and feed them normally after waking up. Operations are done on operating table at about […]. Physiological saline using in injection is injected into windpipe of sham operation group.
(§2) Model animals are divided into prevention groups and treatment groups, then drugs are given to the two groups respectively. According to internationally methods of drug administration, drugs are given continuously to the prevention groups by means of intragastric administration from the second day after successfully establishing model to the 14th day, and drugs are given continuously to treatment groups by means of intragastric administration from the 8th day after successfully establishing model to the 21th day. Groups and dosage regimen are shown in tab.1.
TGF-β1 is a universally recognized strong pro-fibrotic cytokine. It can stimulate the cells to synthesize and secrete extracellular matrix as well as exchange the activity of matrix-degrading enzyme component and directly increase the deposition of ECM. The progress of pulmonary fibrosis can be slowed down by decreasing the content of TGF-β1 in lung tissue. Elisa test kit (which is purchased from Shanghai Excell Biological Technology Co., Ltd.) according to specification is used in the determination of TGF-β1 in mice lung tissue. Results can be seen in FIG. 8.

[2] = test system: pulmonary fibrosis mice induced by bleomycin; experiment: HE stained pathological evaluation and inflammation scores (Embodiment 4); assay type: in vivo, C57BL/6 mice; conditions: for lung tissue inflammation scores (HE stained, grade 0-3): 30, 60 mg/kg, prevention and treatment groups (FIG. 4), lower dose better; for pulmonary inflammation and injury, HE stained pathological changes: prevention groups and treatment groups (FIG. 3), lower dose (30 mg/kg) better than higher dose
Procedure: as §1, §2
After the last intragastric administration, the mice are anaesthetized and killed to collect the lung tissue. Immerse the left lobule in 10% formalin, and embed it by paraffin after being fixed, then cut it into slices to observe the pathological changes by HE staining. As is shown in FIG. 3, structures of lobules of sham operation group are normal and the alveolar walls are complete without inflammation and fibrosis pathological changes. Obvious inflammation injury and masses of tissue begin to appear in lung of mice in model group, then the normal lung tissue disappears and alveolar is blocked. […] The groups with lower dose (30 mg/kg) of the 3 compounds show better effect than the groups with higher dose. The pulmonary inflammation disappears and alveolar structure is clear in groups with lower dose.
Inflammatory classification semi quantitative statistics analysis is made according to results of HE staining. Grade 0 represents normal tissue or minimal inflammation change. Grade 1 (+) represents mild to moderate inflammation change, and lung tissue without obvious damage. Grade 2 (++) represents moderate to severe inflammation injury, and alveolar septum is thickened to form masses of tissue, or lung tissue with damage caused by partial area inflammation. Grade 3 (+++) represents severe inflammation injury, and structure of restricted regions in lung tissue is severely damaged, thus resulting in obliteration. […] The groups with lower dose show better effect than the groups with higher dose. In general, the 3 compounds have better effect in decreasing the pulmonary inflammation than the positive drug pirfenidone.

[3] = test system: pulmonary fibrosis mice induced by bleomycin; experiment: Content determination of hydroxyproline in lung tissue (Embodiment 4); assay type: in vivo, C57BL/6 mice; conditions: 30 mg/kg and 60 mg/kg, prevention groups and treatment groups (FIG. 7); lower dose slightly better
Procedure: as §1, §2
Hydroxyproline mainly exists in collagen protein, but there is only a very small amounts in elastin proteins and it cannot found in other proteins. Therefore the content of collagen protein can be indicated by measuring the content of hydroxyproline, so as to evaluate the degree of pulmonary fibrosis. Method of test kit (which is purchased from Nanjing Jiancheng Biological Technology Co., Ltd.) according to specification is used in determination of hydroxyproline. Results can be seen in FIG. 7.

[4] = test system: pulmonary fibrosis mice induced by bleomycin; experiment: Determination of mice mortality (Embodiment 4); assay type: in vivo, C57BL/6 mice
Procedure: as §1, §2
From the 0th day (the day when the model is established) to 14th day, drugs are given continuously to prevention groups. From the 8th day after successfully establishing model to 21th day, drugs are given continuously to treatment groups. Statistical analysis of death of animals in each group is carried on every day and the survival rate of animals in each group is calculated. Results are shown in tab.2.

[5] = test system: pulmonary fibrosis mice induced by bleomycin; experiment: Activity of 8 alkaloids and pentoxyverine against pulmonary fibrosis in mice (Embodiment 3); assay type: in vivo, C57BL/6 mice; conditions: intragastric from first day after model to 21th day; for pulmonary inflammation, injury and fibrosis in HE and Masson stained pathological sections: alkaloids and pentoxyverine 30 mg/kg (FIG. 1B, 1C)
Procedure: as §1
Experimental mice are randomly divided into 12 groups: 10 mice in model group, 10 mice in pentoxyverine group, and 5 mice in any other group. Group 1 is sham operation group, group 2 is model group, group 3 is pentoxyverine group, group 4 is positive drug pirfenidone group, groups 5-12 are compounds I-VIII administration group respectively. Models of groups 2-12 are established by using bleomycin with the same method used in embodiment 2. From the first day after successfully establishing model, 30 mg/kg pentoxyverine and 300 mg/kg pirfenidone are given to group 3 and group 4 by means of intragastric administration respectively. 30 mg/kg compounds I-VIII are given to groups 5-12 also by means of intragastric administration respectively. Besides, same doses of solvent are given to sham operation group and model group until the 21th day. After the last intragastric administration, the mice are killed to collect the lung tissue, and the right lobule is used for determining the content of hydroxyproline, while the left lobule is used for preparing pathological sections.

[6] = test system: pulmonary fibrosis mice induced by bleomycin; experiment: Detection of the mice lung index (Embodiment 4); assay type: in vivo, C57BL/6 mice; conditions: 30 and 60 mg/kg, prevention groups and treatment groups, versus model group (FIG. 2); lower dose better in prevention groups
Procedure: as §1, §2
After the last intragastric administration, the mice are killed to strip and weigh the lung, and the lung index is the lung weight divided by mouse weight (FIG. 2). […] In general, the 3 compounds have better effect in decreasing the mortality of mice than the positive drug pirfenidone.

[7] = test system: pulmonary fibrosis mice induced by bleomycin; experiment: Masson stained pathological evaluation and imaging analysis of collagen (Embodiment 4); assay type: in vivo, C57BL/6 mice; conditions: for collagen deposition (Masson staining, integrated optical density): 30, 60 mg/kg, prevention and treatment groups (FIG. 5, 6), lower dose better in prevention, higher dose better in treatment
Procedure: as §1, §2
Masson staining is a method aiming at specific staining of fibrillar collagen. After the last intragastric administration, the mice are anaesthetized and killed to collect the lung tissue. Immerse the left lobule in 10% formalin, and embed it by paraffin after being fixed, then is cut it into slices to observe the collagen deposition by Masson staining. Semi quantitative analysis is made by using Image-Pro Plus6.0. Integrated optical density (IOD) of collagen in each visual field is measured after Masson staining. 5 samples are studied in each group and 5 visual fields are picked out from each group. Statistics analysis is made by calculating mean value which is considered as relative amount of collagen in each group.

[8] = test system: cough of guinea pig induced by citric acid; conditions: cited from earlier work
[9] = test system: cough reflex pathway; conditions: in vivo; cited from earlier work
[10] = prevention groups, 30 mg/kg intragastric to the 14th day
[11] = prevention groups, 30 mg/kg intragastric to the 14th day, 10 animals
[12] = prevention groups, 60 mg/kg intragastric to the 14th day
[13] = prevention groups, 60 mg/kg intragastric to the 14th day, 10 animals
[14] = treatment groups, 30 mg/kg intragastric from the 8th to the 21th day
[15] = treatment groups, 30 mg/kg intragastric from the 8th to the 21th day, 18 animals
[16] = treatment groups, 60 mg/kg intragastric from the 8th to the 21th day
[17] = treatment groups, 60 mg/kg intragastric from the 8th to the 21th day, 18 animals

CC[C@@H]1[C@H]2CCCCN3CC[C@H]([C@@H]4[C@H]1OC(=O)[C@@H]4C)[C@@H]23 [Compound VIII, Sessilifoline B]
content of TGF-β1 in lung tissue (ELISA) [1]: effectively decrease the content of TGF-β1 | effect on content of TGF-β1, comparison among compounds [1]: slightly better than that of compound VII | lung tissue inflammation scores (HE stained, grade 0-3) [2]: significantly decrease the pulmonary inflammation | pulmonary inflammation and injury, HE stained pathological changes [2]: significantly alleviate the pulmonary inflammation | content of hydroxyproline in lung tissue [3]: effectively decrease the content of hydroxyproline | Survival rate [4, 10]: 90% | Mortality (number of dead animals) [4, 11]: 1 | Survival rate [4, 12]: 80% | Mortality (number of dead animals) [4, 13]: 2 | Survival rate [4, 14]: 83% | Mortality (number of dead animals) [4, 15]: 3 | Survival rate [4, 16]: 78% | Mortality (number of dead animals) [4, 17]: 4 | pulmonary inflammation, injury and fibrosis in HE and Masson stained pathological sections [5]: recover to nearly normal structure | lung index (lung weight divided by mouse weight) [6]: significantly decrease the lung index | collagen deposition (Masson staining, integrated optical density) [7]: significantly decrease collagen deposition

CCN(CC)CCOCCOC(=O)C1(c2ccccc2)CCCC1 [Pentoxyverine, pentoxyverine, reference compound]
pulmonary inflammation, injury and fibrosis in HE and Masson stained pathological sections [5]: cannot decrease the degree of pulmonary injury and fibrosis | content of hydroxyproline in lung tissue ([5]; alkaloids and pentoxyverine 30 mg/kg, pirfenidone 300 mg/kg, versus model group (FIG. 1A)): no significant difference

CC[C@@H]1[C@@H]2CCCCN3[C@@H]2[C@@H](C[C@H]3[C@@H]2C[C@H](C)C(=O)O2)[C@H]2[C@@H]1OC(=O)[C@H]2C [Compound III, Tuberostemonine J]
antitussive effect [8]: very good antitussive effect | antitussive effect compared with codein [8]: weaker antitussive effect than that of codein | pulmonary inflammation, injury and fibrosis in HE and Masson stained pathological sections [5]: recover to nearly normal structure

CC[C@@H]1[C@H]2CCCCN3[C@H]2[C@H](C[C@@H]3[C@@H]2C[C@H](C)C(=O)O2)[C@@H]2[C@H]1OC(=O)[C@H]2C [Compound II, Tuberostemonine A]
pulmonary inflammation, injury and fibrosis in HE and Masson stained pathological sections [5]: recover to nearly normal structure

CC[C@@H]1[C@H]2CCCCN3CC[C@@H]([C@H]4[C@@H]1OC(=O)[C@H]4C)[C@@H]23 [isostenine, reference compound]
antitussive effect [8]: very good antitussive effect

CC[C@H]1[C@H]2[C@@H](CCCN3[C@H]2CC[C@H]3[C@@H]2C[C@H](C)C(=O)O2)O[C@]12C=C(C)C(=O)O2 [stemoninine, reference compound]
antitussive activities, comparison among stemona tuberosa alkaloids [9]: similar

CC[C@@H]1[C@H]2CCCCN3[C@@H]2[C@@H](C[C@H]3[C@@H]2C[C@H](C)C(=O)O2)[C@H]2[C@@H]1OC(=O)[C@H]2C [Compound IV, Tuberostemonine H]
antitussive effect [8]: very good antitussive effect | antitussive effect compared with codein [8]: weaker antitussive effect than that of codein

CC[C@@H]1[C@H]2CCCCN3[C@H]2[C@H](C[C@H]3[C@@H]2C[C@H](C)C(=O)O2)[C@@H]2[C@H]1OC(=O)[C@H]2C [Compound I, Tuberostemonine]
content of TGF-β1 in lung tissue (ELISA) [1]: effectively decrease the content of TGF-β1 | effect on content of TGF-β1, comparison among compounds [1]: slightly better than that of compound VII | lung tissue inflammation scores (HE stained, grade 0-3) [2]: significantly decrease the pulmonary inflammation | pulmonary inflammation and injury, HE stained pathological changes [2]: significantly alleviate the pulmonary inflammation | content of hydroxyproline in lung tissue [3]: effectively decrease the content of hydroxyproline | Survival rate [4, 10]: 100% | Mortality (number of dead animals) [4, 11]: 0 | Survival rate [4, 12]: 90% | Mortality (number of dead animals) [4, 13]: 1 | protective effect on model mice (mortality), comparison among compounds ([4]; prevention groups, lower dose (30 mg/kg) better): more effective than compound VIII | Survival rate [4, 14]: 89% | Mortality (number of dead animals) [4, 15]: 2 | Survival rate [4, 16]: 83% | Mortality (number of dead animals) [4, 17]: 3 | pulmonary inflammation, injury and fibrosis in HE and Masson stained pathological sections [5]: recover to nearly normal structure | lung index (lung weight divided by mouse weight) [6]: significantly decrease the lung index | collagen deposition (Masson staining, integrated optical density) [7]: significantly decrease collagen deposition | effect in decreasing the collagen deposition, comparison among compounds ([7]; in general, Masson staining): slightly better than that of compound VIII | antitussive activities, comparison among stemona tuberosa alkaloids [9]: weaker

C[C@@H]1C[C@]2(CCCCN3[C@H]2CC[C@H]3[C@@H]2C[C@H](C)C(=O)O2)OC1=O [croomine, reference compound]
antitussive activities, comparison among stemona tuberosa alkaloids [9]: similar
